Test results as given in patent US9447385B2, “Butanol dehydrogenase enzyme from the bacterium Achromobacter xylosoxidans” (BUTAMAX ADVANCED BIOFUELS LLC, priority 2008, dated 2016).
Like-named read-outs stand apart in the source and are kept apart here. Blank lines part the entries; values can stand above or below the molecule they belong to.

What was measured:
[1] = tested on: A. xylosoxidans butanol dehydrogenase; conditions: alcohol substrate (oxidation); 35° C., TRIS buffer pH 8.5, 3 mM NAD+; crude enzyme from A. xylosoxidans
Experimental: Reactions with alcohol substrates were performed at 35° C. in TRIS buffer, pH 8.5, containing 3 mM NAD^+ and varying concentrations of alcohol. Reactions with ketone or aldehyde substrates were performed at 35° C. with 50 mM MES buffer, pH 6.0, 200 μM NADH and varying concentrations of the ketone or aldehyde. Crude enzyme preparations were used, obtained either from A. xylosoxidans or recombinant E. coli strain Mach1/pTrc99a::sadB (described in Example 3 below).

[2] = tested on: A. xylosoxidans butanol dehydrogenase; assay: Kinetic characterization of butanol dehydrogenase, reduction of ketone or aldehyde substrates; assay type: biochemical, Achromobacter xylosoxidans; conditions: 35° C., 50 mM MES pH 6.0, 200 μM NADH
Text: The secondary alcohol dehydrogenase (sadB) from Achromobacter xylosoxidans was cloned into the vector pTrc99a (Amann et al., Gene 69(2):301-315 (1988)). The coding region (SEQ ID NO: 1) was amplified using standard conditions from A. xylosoxidans genomic DNA, prepared using a Gentra Puregene kit (Gentra Systems, Inc., Minneapolis, Minn.; catalog number D-5500A) following the recommended protocol for gram negative organisms using forward and reverse primers N473 and N469 (SEQ ID NOs: 24 and 23). The PCR product was TOPO-Blunt cloned into pCR4 BLUNT (Invitrogen) to produce pCR4Blunt::sadB, which was used to transform E. coli Mach-1 cells. Plasmid DNA was subsequently isolated from four clones, and the sequence verified. The plasmid was then digested with EcoRI, releasing the sadB fragment, which was ligated with EcoRI-digested pTrc99a to generate pTrc99a::sadB. The E. coli Mach 1 cells were transformed with the plasmid and the resulting transformant was named Mach1/pTrc99a::sadB.

[3] = tested on: butanol dehydrogenase from A. xylosoxidans; assay: Activity stain on non-denaturing polyacrylamide gel (MTT/PMS coupled); assay type: biochemical, Achromobacter xylosoxidans; conditions: NAD+, MTT, PMS
Text: The purified enzyme and molecular weight standards were subjected to electrophoresis using non-denaturing polyacrylamide gels (8-16% Tris-Glycine gradient gel, Invitrogen). After electrophoresis, the gels were removed and stained for protein (Simply Blue Protein Stain, Invitrogen) or stained for activity by coupling the conversion of 1-butanol plus NAD^+ to butyraldehyde plus NADH with the conversion of 3 [4,5-dimethylthiazol-2-yl]-2,5-diphenyltetrazolium bromide (MTT) to a deeply colored formazan, using phenazine methosulfate (PMS) as mediator (Tang et al., J. Bacteriol. 140, 182 (1997)). The activity solution contained 0.5 mg PMS, 5 mg MTT, 20 mg NAD^+ and 1 mL of 1-butanol in a total volume of 25 mL.

[4] = ketone or aldehyde substrate (reduction), crude enzyme from A. xylosoxidans
[5] = aldehyde substrate (reduction), crude enzyme from E. coli strain Mach1/pTrc99a

Molecule: 1-Butanol
Km [1]: 4600 µM
Vmax [1]: 0.02 µmol/min

Molecule: CCCC=O [Butyraldehyde]
Km [2, 4]: 7300 µM
Vmax [2, 4]: 0.67 µmol/min

activity staining of the enzyme band with the alcohol as substrate [3]: active
Molecule: CC(C)CO [isobutanol]

Molecule: CCC(C)O (stereo not drawn) [2-Butanol]
activity staining of the enzyme band with the alcohol as substrate [3]: active
Km [1]: 300 µM
Vmax [1]: 0.22 µmol/min

Molecule: CC(C)C=O [Isobutyraldehyde]
Km [2, 5]: 1900 µM
Vmax [2, 5]: 1.1 µmol/min

Molecule: CCC(C)=O [2-Butanone]
Km [2, 4]: 500 µM
Vmax [2, 4]: 0.35 µmol/min
